The text below walks through data of patent US12559474B2, “Triazine derivatives having virus replication inhibitory activity and pharmaceutical composition comprising the same” (priority 2021, dated 2026).

Read-outs that look alike come from different tables or passages of the source. A value given as a limit tells only on which side of the number the result lay.

The target of one test is SARS-CoV-2 3CL protease (Severe acute respiratory syndrome coronavirus 2, UniProt P0DTD1). Put plainly: biochemical. The following applies: 50% SARS-CoV-2 3CL protease inhibitory concentration, read-out: IC50.
For the next test, the system named is SARS-CoV-2. Put plainly: microbe, parasite or virus in culture. The following applies: Severe acute respiratory syndrome coronavirus 2, VeroE6/TMPRSS2, 72 h, 50% SARS-CoV-2 infected cell death inhibitory concentration, VeroE6/TMPRSS2 cells, 3 days culture. It is filed as cell-based.

In the case of `Cc1cncc(-n2c(=O)nc(N(C)c3cc4cn(C)nc4cc3Cl)n(Cc3cc(F)c(F)c(F)c3)c2=O)c1` [II-0483], the IC50 on SARS-CoV-2 3CL protease (RapidFire MS) worked out at 1.8 µM. Moreover, a half-maximal effect with SARS-CoV-2 (CellTiter-Glo 2.0) (EC50) was put at 20.9 µM.

Turning to `O=c1[nH]cccc1Cn1c(=O)nc(NC2(c3ccccc3F)COC2)n(Cc2cc(F)c(F)c(F)c2)c1=O` [II-0484], at SARS-CoV-2 3CL protease (RapidFire MS), the IC50 came to 3.4 µM. The EC50 in the test with SARS-CoV-2 (CellTiter-Glo 2.0) stood at 14.2 µM.

Take `Cn1cc2cc(Nc3nc(=O)n(-c4cncc(C#N)c4)c(=O)n3Cc3cc(Cl)c(F)cc3F)c(Cl)cc2n1` [II-0485]: the IC50 on SARS-CoV-2 3CL protease (given as class symbols) is < 0.1 µM. Moreover, the EC50 with SARS-CoV-2 (class symbols) was < 1 µM.

For `Cn1cc2cc(Nc3nc(=O)n(-c4cncc(C#N)c4)c(=O)n3Cc3ccc(F)c(C#N)c3)c(Cl)cc2n1` [II-0486], at SARS-CoV-2 3CL protease (given as class symbols), the IC50 is < 0.1 µM. In the test on SARS-CoV-2 (class symbols), this compound returned an EC50 of 1 to 10 µM.

Regarding `Cn1cc2cc(Nc3nc(=O)n(-c4cnc5ccccn45)c(=O)n3Cc3cc(Cl)c(F)cc3F)c(Cl)cc2n1` [II-0487], the IC50 at SARS-CoV-2 3CL protease (given as class symbols) was < 0.1 µM. In addition, in the test on SARS-CoV-2 (class symbols), the EC50 was 1 to 10 µM.

Regarding `Cn1cc2cc(Nc3nc(=O)n(-c4cncc(C#N)c4)c(=O)n3Cc3cc(F)c(F)c(Cl)c3)c(Cl)cc2n1` [II-0489], at SARS-CoV-2 3CL protease (given as class symbols), the IC50 is < 0.1 µM. Also, the EC50 in the test with SARS-CoV-2 (class symbols) was in the range of 1 to 10 µM.

With `Cn1cc2cc(Nc3nc(=O)n(-c4cnc5ccccn45)c(=O)n3Cc3cc(F)c(F)c(Cl)c3)c(Cl)cc2n1` [II-0490], the IC50 on SARS-CoV-2 3CL protease (RapidFire MS) was determined as 0.083 µM. A half-maximal response in the test with SARS-CoV-2 (CellTiter-Glo 2.0) (EC50) required 8.7 µM.

In the case of `Cn1cc2cc(Nc3nc(=O)n(-c4cncc(C#N)c4)c(=O)n3Cc3cc(F)c(F)c(F)c3)c(Cl)cc2n1` [II-0491], the IC50 on SARS-CoV-2 3CL protease (given as class symbols) was < 0.1 µM. This compound also showed an EC50 with SARS-CoV-2 (class symbols) of 1 to 10 µM.

As to `COc1ccc(Nc2nc(=O)n(-c3cncc(C)c3)c(=O)n2-c2cccc(Cl)c2)cc1` [II-0492], the IC50 on SARS-CoV-2 3CL protease (RapidFire MS) came out at 1 µM. In addition, the EC50 in the test on SARS-CoV-2 (class symbols) is < 1 µM.

Regarding `CCn1cc2cc(Nc3nc(=O)n(-c4cncc(C)c4)c(=O)n3Cc3cc(C#N)ccc3C)c(Cl)cc2n1` [II-0493], at SARS-CoV-2 3CL protease (RapidFire MS), the IC50 was 0.0013 µM. Also, the EC50 in the test with SARS-CoV-2 (CellTiter-Glo 2.0) came to 0.068 µM.

`CCn1cc2cc(Nc3nc(=O)n(-c4cncc(C)c4)c(=O)n3Cc3cc(Cl)c(F)cn3)c(Cl)cc2n1` [II-0494]: the IC50 at SARS-CoV-2 3CL protease (RapidFire MS) worked out at 0.024 µM. For the same compound, in the test on SARS-CoV-2 (CellTiter-Glo 2.0), the midpoint of the response, the EC50, lay at 0.878 µM.

`COc1cncc(-n2c(=O)nc(Nc3cc4cn(C)nc4cc3Cl)n(Cc3cc(F)c(F)c(F)c3)c2=O)c1` [II-0495]: the IC50 at SARS-CoV-2 3CL protease (given as class symbols) was < 0.1 µM. Besides, the EC50 in the test on SARS-CoV-2 (class symbols) was < 1 µM.

On to `CNc1nc2ccc(Nc3nc(=O)n(-c4cncc(C)c4)c(=O)n3Cc3cc(C#N)ccc3C)cc2s1` [II-0496], for which, on SARS-CoV-2 3CL protease (given as class symbols), the IC50 is < 0.1 µM. In the test with SARS-CoV-2 (class symbols), the EC50 is < 1 µM.

Regarding `CNc1nc2ccc(Nc3nc(=O)n(-c4cncc(C)c4)c(=O)n3Cc3cc(C#N)ccc3Cl)cc2s1` [II-0497], the IC50 at SARS-CoV-2 3CL protease (given as class symbols) was < 0.1 µM. Also, in the test on SARS-CoV-2 (class symbols), the EC50 was < 1 µM.

As for `Cc1cncc(-n2c(=O)nc(Nc3cc4sc(NCC(F)F)nc4cc3Cl)n(Cc3cc(F)c(F)c(C#N)c3)c2=O)c1` [II-0498], the IC50 at SARS-CoV-2 3CL protease (given as class symbols) is < 0.1 µM. In addition, the EC50 in the test with SARS-CoV-2 (class symbols) was in the range of 1 to 10 µM.

As for `Cn1cc2cc(Nc3nc(=O)n(-c4cncc5c4COC5)c(=O)n3Cc3cc(Cl)c(F)cc3F)c(Cl)cc2n1` [II-0499], at SARS-CoV-2 3CL protease (RapidFire MS), the IC50 was found to be 0.012 µM. The compound also registered an EC50 in the test on SARS-CoV-2 (CellTiter-Glo 2.0) of 0.68 µM.

Consider `Cn1cnc(Cn2c(=O)nc(Nc3cc4sc(NCC(F)F)nc4cc3Cl)n(Cc3cc(F)c(F)cc3F)c2=O)n1` [II-0500], for which the IC50 on SARS-CoV-2 3CL protease (given as class symbols) is < 0.1 µM. This compound also had an EC50 in the test with SARS-CoV-2 (class symbols) of 1 to 10 µM.

For `CNc1nc2cc(F)c(Nc3nc(=O)n(-c4cncc(C)c4)c(=O)n3Cc3cc(F)c(F)cc3F)cc2s1` [II-0501], the IC50 at SARS-CoV-2 3CL protease (given as class symbols) is < 0.1 µM. Besides, the EC50 in the test with SARS-CoV-2 (class symbols) is < 1 µM.

`Cn1cc2cc(Nc3nc(=O)n(-c4cncc5c4COC5)c(=O)n3Cc3cc(F)c(F)c(F)c3)c(Cl)cc2n1` [II-0503]: at SARS-CoV-2 3CL protease (given as class symbols), the IC50 was < 0.1 µM. The compound further showed an EC50 in the test with SARS-CoV-2 (class symbols) of 1 to 10 µM.

On to `Cc1cncc(-n2c(=O)nc(Nc3cc4cn(C)nc4cc3F)n(Cc3cc(C#N)c(F)cc3C)c2=O)c1` [II-0504], for which the IC50 at SARS-CoV-2 3CL protease (given as class symbols) is < 0.1 µM. For the same compound, the EC50 with SARS-CoV-2 (class symbols) is < 1 µM.

Turning to `O=c1[nH]cccc1Cn1c(=O)nc(Nc2cc3cn(CC(F)(F)F)nc3cc2Cl)n(Cc2cc(F)c(F)c(F)c2)c1=O` [II-0505], the IC50 on SARS-CoV-2 3CL protease (given as class symbols) was < 0.1 µM. Besides, in the test with SARS-CoV-2 (class symbols), the EC50 was in the range of 1 to 10 µM.

In the case of `Cc1cncc(-n2c(=O)nc(Nc3cc4cn(CC(F)F)nc4cc3F)n(Cc3cc(F)c(F)c(C#N)c3)c2=O)c1` [II-0506], the IC50 at SARS-CoV-2 3CL protease (given as class symbols) is < 0.1 µM. Moreover, in the test with SARS-CoV-2 (class symbols), the EC50 was < 1 µM.

For the compound `N#CCn1cc2cc(Nc3nc(=O)n(Cc4ccc[nH]c4=O)c(=O)n3Cc3cc(F)c(F)c(F)c3)c(Cl)cc2n1` [II-0507], on SARS-CoV-2 3CL protease (given as class symbols), the IC50 was < 0.1 µM. In addition, the EC50 in the test on SARS-CoV-2 (class symbols) lay in the range of 1 to 10 µM.

In the case of `Cn1cnc(Cn2c(=O)nc(Nc3cc4oc(N)nc4cc3Cl)n(Cc3cc(F)c(F)c(Cl)c3)c2=O)n1` [II-0508], the IC50 at SARS-CoV-2 3CL protease (given as class symbols) is < 0.1 µM. Also, in the test with SARS-CoV-2 (class symbols), the EC50 is 1 to 10 µM.

In the case of `CNC(=O)Cn1cc2cc(Nc3nc(=O)n(-c4cncc5ccccc45)c(=O)n3Cc3cc(F)c(F)c(F)c3)c(Cl)cc2n1` [II-0509], the IC50 at SARS-CoV-2 3CL protease (given as class symbols) was < 0.1 µM. For the same compound, the EC50 in the test on SARS-CoV-2 (class symbols) was 1 to 10 µM.

A word on the IC50: it is the concentration at which inhibition is half-maximal. One may read the EC50 as the concentration that produces a half-maximal response. Higher therefore signals lower potency in that assay.
